Reference: PubChem BioAssay AID449762 (Southern Research Specialized Biocontainment Screening …, 2010)
Results filed as inconclusive are left out.

Test system: M. tuberculosis H37Rv growth inhibition, 7H9 media
Test: M. tuberculosis growth inhibition, HTS (AID 449762);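 also: bacterial growth assessed after seven days of incubation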
Details: for IC90: measured here: IC90 growth inhibition

Row | Structure (SMILES) | IC50 | IC90
1 | COc1ccc(/C(O)=C/Sc2nnc(Cc3ccccc3)o2)cc1 | 26.3 µM | > 100 µM
2 | CN(C)c1ccc(N=Nc2ccccc2C(=O)OCC(=O)NCC2CCCCC2)cc1 | 11 µM | 13.1 µM
3 | O=C(CSC1=Nc2ccccc2C2=NC(c3ccccc3)C(=O)N12)NC1CCCCC1 (stereo not drawn) | 0.66 µM | 1.29 µM
4 | CC(C)COCc1ccc(O)c2ncccc12 | 1.64 µM | 2.35 µM
5 | Cc1ccc(-c2noc(=O)n2CC(=O)c2ccc(Cl)cc2)cc1 | 44.3 µM | > 100 µM
6 | Cc1ccc(NC(=O)Cc2ccc(-c3ccccc3)cc2)nc1 | 25 µM | 61.3 µM
7 | CCCCOc1ccc(Br)cc1/C(C)=N/NC1=NCCN1 | 20.7 µM | 33.3 µM
8 | OC(COC(c1ccc(Cl)cc1)c1ccc(Cl)cc1)CN1CCc2ccccc2C1 (stereo not drawn) | 18.8 µM | 24.7 µM
9 | CC(C)(C)CC(C)(C)c1ccc(OCCOCC[N+](C)(C)Cc2ccccc2)cc1 | 26.2 µM | 30 µM
10 | Cc1cc(O)c2c(c1)C(=O)c1cc(O)cc(O)c1C2=O | 91.5 µM | > 100 µM
11 | CCOC(=O)CSc1nnc(SCCN2C(=O)c3ccccc3C2=O)s1 | 4.3 µM | 30 µM
12 | Cn1c(-c2c(N)n(CCc3ccccc3)c3nc4ccccc4nc23)nc2ccccc21 | 7.64 µM | > 100 µM
13 | COc1cccc(NC(=O)C2CCN(Cc3cnn(-c4ccccc4)c3-n3cccc3)CC2)c1 | 48.4 µM | 56.2 µM
14 | CCCCN(C)CCNC(=O)c1ccc(Cn2c(=S)[nH]c3ccc(Br)cc3c2=O)cc1 | 12.2 µM | 20 µM
15 | Cc1cccc(-c2oc3ccc(-c4ccc5c(c4)OCO5)cc3c2C#Cc2cncn2C)c1 | 2.9 µM | 3.36 µM
16 | Nc1cc(C(=O)OCC(=O)NNC(=O)c2cccs2)ccc1Cl | 64.2 µM | > 100 µM
17 | COC(=O)c1ccc(-c2ncc(-c3cccc4ccccc34)o2)cc1 | 15.8 µM | 52.7 µM
18 | CCOC(=O)C1CCN(CC(O)COc2ccc(C(C)(C)CC)cc2)CC1 (stereo not drawn) | 22.8 µM | 29.5 µM
19 | CNC(CC(C)C)C(=O)NC1C(=O)NC(CC(N)=O)C(=O)NC2C(=O)NC3C(=O)NC(C(=O)NC(C(=O)O)c4cc(O)cc(O)c4-c4cc3ccc4O)C(O)c3ccc(c(Cl)c3)Oc3cc2cc(c3OC2OC(CO)C(O)C(O)C2OC2C[C@](C)(N)C(O)C(C)O2)Oc2ccc(cc2Cl)C1O (stereo partly drawn) | 1.01 µM | 4.42 µM
20 | Cc1ccc(NC(=O)COC(=O)CCc2c[nH]c3ccccc23)cc1[N+](=O)[O-] | 0.68 µM | 4.74 µM
21 | CCc1ccc(/C(C)=N/Nc2cc(Cl)nc(C)n2)cc1 | 41.9 µM | 99 µM
22 | CCCCN1C(=O)C2(NNc3ccccc3O2)c2ccccc21 (stereo not drawn) | 57.5 µM | > 100 µM

Row | Structure (SMILES) | IC50 | IC90
23 | COc1cc(C)ccc1OCCOc1c(C)cc(Cl)cc1Cl | 21.6 µM | > 100 µM
24 | Oc1ccccc1NCC(O)Cn1ccc2ccccc21 (stereo not drawn) | 5.37 µM | 8.32 µM
25 | Cc1cc(C)c(CSc2ncc(-c3ccc([N+](=O)[O-])cc3)[nH]2)c(C)c1 | 42.5 µM | 62.8 µM
26 | CCOC(=O)COn1c2c(c3c4no[n+]([O-])c4ccc31)CCCC2 | 3.16 µM | 5.83 µM
27 | NNC(=S)NCc1ccc2c(c1)OCO2 | 23.8 µM | 26.8 µM
28 | CC(C)(C)C(=O)/C(=C\c1cccc([N+](=O)[O-])c1)n1cncn1 | 1.51 µM | 1.72 µM
29 | Cc1nn(-c2ccccc2)c(Cl)c1C(=O)Nc1nnc(C2CCCCC2)s1 | 17.3 µM | > 50 µM
30 | CC(C)(C)c1cc(-c2nc(N)nc(N)n2)c(O)c(C(C)(C)C)c1 | 75.9 µM | 88.9 µM
31 | O=C(NCC1CCN(c2ccc(S(=O)(=O)N3CCOCC3)cc2)CC1)c1ccc(Cl)cc1 | 31.9 µM | 51.8 µM
32 | Cn1ccc(=Nc2ccc(NC(=O)c3ccc(N=c4ccn(C)c5ccc([N+](=O)[O-])cc45)cc3)cc2)cc1 | < 0.2 µM | < 0.2 µM
33 | CCOC(=O)COc1ccc(S(=O)(=O)NCCC2=CCCCC2)cc1 | 13.6 µM | 27.6 µM
34 | O=C1C2C(C(=O)N1/N=C/c1ccc([N+](=O)[O-])o1)C1C=CC2C12CC2 (stereo not drawn) | 19 µM | 29.6 µM
35 | Cc1cc(Cl)ccc1OCCCC(=O)NO | 17.6 µM | > 100 µM
36 | Cc1ccc(OCc2cc(C(=O)N(C)Cc3cnc4ccccn34)no2)cc1C | 19.6 µM | 32 µM
37 | COc1ccc(C(CCNCc2ccc(OC(C)C)cc2)C(C)C)cc1 (stereo not drawn) | 23.3 µM | 26.9 µM
38 | Cc1c(CN2CCC(CO)(Cc3cccc(C(F)(F)F)c3)CC2)c2ccccc2n1C | 20.6 µM | 28.9 µM
39 | Cc1ccn2c(-c3csc(NCc4ccccc4)n3)c(C)nc2c1 | 46.8 µM | 52.8 µM
40 | Oc1ccc(-[n+]2c(-c3ccccc3)cc(-c3ccccc3)cc2-c2ccccc2)cc1 | 11.7 µM | 18.8 µM
41 | O=[N+]([O-])c1ccc(-c2nc(-c3cccs3)c(-c3cccs3)[nH]2)cc1 | 21.7 µM | > 100 µM
42 | COc1ccc(C(=O)COC(=O)[C@H](C)Nc2ccc(C(F)(F)F)cc2[N+](=O)[O-])cc1 | 11.2 µM | > 25 µM
43 | C#CCOCCOCCOCCNc1nc(N2CCN(C(=O)C(Cc3ccc(O)cc3)n3cc(C(N)CC(C)C)nn3)CC2)nc(N2CCN(C(=O)C(Cc3cc4ccccc4[nH]3)n3cc(C(N)Cc4ccc(O)cc4)nn3)CC2)n1 (stereo not drawn) | 6.03 µM | 6.93 µM
44 | CC/C(C)=N/NC(=S)NCc1ccco1 | 47.5 µM | 53.8 µM
